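Five compound concentrations were applied to cells in 96-well plates for 48 hours; endpoints were derived by simple linear interpolation of the resulting dose-response curve. The concentration for 50% growth inhibition is given as GI50.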 The source made the active and inactive calls. No stated cut-off is given here; in the data, active = GI50 up to about 1.1 µM and inactive = higher.
Assays:
Assay in all cases: DTP human tumour cell line panel, 48 h
786-0 = tested on: 786-0
A498 = tested on: A498
A549 = tested on: A549
ACHN = tested on: ACHN
BT-549 = tested on: BT-549
CAKI-1 = tested on: CAKI-1
CCRF-CEM = tested on: CCRF-CEM
COLO 205 = tested on: COLO 205
DU-145 = tested on: DU-145
EKVX = tested on: EKVX
HCT-116 = tested on: HCT-116
HCT-15 = tested on: HCT-15
HL-60 = tested on: HL-60
HOP-92 = tested on: HOP-92
HT-29 = tested on: HT-29
Hs-578T = tested on: Hs-578T
IGROV-1 = tested on: IGROV-1
K562 = tested on: K562
KM12 = tested on: KM12
LOX IMVI = tested on: LOX IMVI
M14 = tested on: M14
MCF7 = tested on: MCF7
MDA-MB-231 = tested on: MDA-MB-231
MDA-MB-435 = tested on: MDA-MB-435
MDA-N = tested on: MDA-N
Malme-3M = tested on: Malme-3M
NCI-H226 = tested on: NCI-H226
NCI-H23 = tested on: NCI-H23
NCI-H460 = tested on: NCI-H460
NCI-H522 = tested on: NCI-H522
NCI/ADR-RES = tested on: NCI/ADR-RES
OVCAR-3 = tested on: OVCAR-3
OVCAR-4 = tested on: OVCAR-4
OVCAR-5 = tested on: OVCAR-5
OVCAR-8 = tested on: OVCAR-8
PC-3 = tested on: PC-3
RPMI-8226 = tested on: RPMI-8226
RXF 393 = tested on: RXF 393
SF-268 = tested on: SF-268
SF-295 = tested on: SF-295
SF-539 = tested on: SF-539
SK-MEL-28 = tested on: SK-MEL-28
SK-MEL-2 = tested on: SK-MEL-2
SK-MEL-5 = tested on: SK-MEL-5
SK-OV-3 = tested on: SK-OV-3
SN12C = tested on: SN12C
SNB-19 = tested on: SNB-19
SNB-75 = tested on: SNB-75
SW-620 = tested on: SW-620
T47D = tested on: T47D
TK-10 = tested on: TK-10
U-251 = tested on: U-251
UACC-257 = tested on: UACC-257
UACC-62 = tested on: UACC-62
UO-31 = tested on: UO-31
SR = tested on: SR
HCC 2998 = tested on: HCC 2998
HOP-62 = tested on: HOP-62
MOLT-4 = tested on: MOLT-4

Structure (SMILES): CO[P@]1(=O)O[C@@H](c2ccccc2)[C@H](O)[C@]1(O)c1ccccc1
- GI50 (786-0): > 100 µM (inactive)
- GI50 (A498): > 100 µM (inactive)
- GI50 (A549): > 100 µM (inactive)
- GI50 (ACHN): > 100 µM (inactive)
- GI50 (BT-549): > 100 µM (inactive)
- GI50 (CAKI-1): > 100 µM (inactive)
- GI50 (CCRF-CEM): > 100 µM (inactive)
- GI50 (COLO 205): > 100 µM (inactive)
- GI50 (DU-145): > 100 µM (inactive)
- GI50 (EKVX): > 100 µM (inactive)
- GI50 (HCT-116): > 100 µM (inactive)
- GI50 (HCT-15): > 100 µM
- GI50 (HL-60): > 100 µM (inactive)
- GI50 (HOP-92): > 100 µM (inactive)
- GI50 (HT-29): > 100 µM (inactive)
- GI50 (Hs-578T): > 100 µM (inactive)
- GI50 (IGROV-1): > 100 µM (inactive)
- GI50 (K562): > 100 µM (inactive)
- GI50 (KM12): > 100 µM (inactive)
- GI50 (LOX IMVI): > 100 µM (inactive)
- GI50 (M14): > 100 µM (inactive)
- GI50 (MCF7): > 100 µM (inactive)
- GI50 (MDA-MB-231): > 100 µM (inactive)
- GI50 (MDA-MB-435): > 100 µM (inactive)
- GI50 (MDA-N): > 100 µM (inactive)
- GI50 (Malme-3M): > 100 µM (inactive)
- GI50 (NCI-H226): > 100 µM (inactive)
- GI50 (NCI-H23): > 100 µM (inactive)
- GI50 (NCI-H460): > 100 µM (inactive)
- GI50 (NCI-H522): > 100 µM (inactive)
- GI50 (NCI/ADR-RES): > 100 µM (inactive)
- GI50 (OVCAR-3): > 100 µM (inactive)
- GI50 (OVCAR-4): > 100 µM (inactive)
- GI50 (OVCAR-5): > 100 µM (inactive)
- GI50 (OVCAR-8): > 100 µM (inactive)
- GI50 (PC-3): > 100 µM (inactive)
- GI50 (RPMI-8226): > 100 µM (inactive)
- GI50 (RXF 393): > 100 µM (inactive)
- GI50 (SF-268): > 100 µM (inactive)
- GI50 (SF-295): > 100 µM (inactive)
- GI50 (SF-539): > 100 µM (inactive)
- GI50 (SK-MEL-28): > 100 µM (inactive)
- GI50 (SK-MEL-2): > 100 µM (inactive)
- GI50 (SK-MEL-5): > 100 µM (inactive)
- GI50 (SK-OV-3): > 100 µM (inactive)
- GI50 (SN12C): > 100 µM (inactive)
- GI50 (SNB-19): > 100 µM (inactive)
- GI50 (SNB-75): > 100 µM (inactive)
- GI50 (SW-620): > 100 µM (inactive)
- GI50 (T47D): > 100 µM (inactive)
- GI50 (TK-10): > 100 µM (inactive)
- GI50 (U-251): > 100 µM (inactive)
- GI50 (UACC-257): > 100 µM (inactive)
- GI50 (UACC-62): > 100 µM (inactive)
- GI50 (UO-31): > 100 µM (inactive)

Structure (SMILES): C=C1C(=O)O[C@H]2C3OC3(C)CC/C=C(/C(=O)OC)[C@@H](OC(C)=O)[C@H](OC(=O)C3(C)OC3C)[C@H]12 (some centres not stated)
- GI50 (BT-549): 1.04 µM (active)
- GI50 (DU-145): 13.6 µM (inactive)
- GI50 (HL-60): 0.196 µM (active)
- GI50 (HOP-92): 1.61 µM (inactive)
- GI50 (Hs-578T): 7.8 µM (inactive)
- GI50 (K562): 0.299 µM (active)
- GI50 (MCF7): 1.12 µM (active)
- GI50 (MDA-MB-231): 2.07 µM (inactive)
- GI50 (MDA-MB-435): 2.05 µM (inactive)
- GI50 (MDA-N): 1.65 µM (inactive)
- GI50 (NCI/ADR-RES): 3.73 µM (inactive)
- GI50 (OVCAR-5): 2.94 µM (inactive)
- GI50 (PC-3): 2.17 µM (inactive)
- GI50 (RPMI-8226): 0.297 µM (active)
- GI50 (SNB-19): > 7.5 µM (inactive)
- GI50 (SR): 0.186 µM (active)
- GI50 (T47D): 0.989 µM (active)

Structure (SMILES): O=C1c2ccccc2-c2nc(-c3ccccc3)cc3c2c1nc1ccccc13
- GI50 (786-0): 25.2 µM (inactive)
- GI50 (A549): 16.9 µM (inactive)
- GI50 (ACHN): 18.5 µM (inactive)
- GI50 (BT-549): 17.7 µM (inactive)
- GI50 (CAKI-1): 27.2 µM (inactive)
- GI50 (CCRF-CEM): 0.59 µM (active)
- GI50 (COLO 205): 25.6 µM (inactive)
- GI50 (DU-145): 13.9 µM (inactive)
- GI50 (EKVX): 23.5 µM (inactive)
- GI50 (HCC 2998): 13.8 µM (inactive)
- GI50 (HCT-116): 10.2 µM (inactive)
- GI50 (HCT-15): 11.2 µM
- GI50 (HL-60): 1.03 µM (active)
- GI50 (HOP-62): 16.7 µM (inactive)
- GI50 (HT-29): 13.2 µM (inactive)
- GI50 (Hs-578T): 22.6 µM (inactive)
- GI50 (IGROV-1): 4.12 µM (inactive)
- GI50 (K562): 1 µM (active)
- GI50 (KM12): 15.6 µM (inactive)
- GI50 (LOX IMVI): 1.77 µM (inactive)
- GI50 (M14): 5.55 µM (inactive)
- GI50 (MCF7): 4.51 µM (inactive)
- GI50 (MDA-MB-231): 17.6 µM (inactive)
- GI50 (MDA-MB-435): 1.87 µM (inactive)
- GI50 (MDA-N): 1.89 µM (inactive)
- GI50 (MOLT-4): 6.52 µM (inactive)
- GI50 (Malme-3M): 4.7 µM (inactive)
- GI50 (NCI-H226): 16.6 µM (inactive)
- GI50 (NCI-H23): 3.6 µM (inactive)
- GI50 (NCI/ADR-RES): 14.5 µM (inactive)
- GI50 (OVCAR-3): 0.141 µM (active)
- GI50 (OVCAR-4): 26.7 µM (inactive)
- GI50 (OVCAR-5): 29.4 µM (inactive)
- GI50 (OVCAR-8): 16.4 µM (inactive)
- GI50 (PC-3): 4.08 µM (inactive)
- GI50 (RPMI-8226): 0.479 µM (active)
- GI50 (RXF 393): 29.5 µM (inactive)
- GI50 (SF-268): 19.7 µM (inactive)
- GI50 (SF-295): 12 µM (inactive)
- GI50 (SK-MEL-28): 9.25 µM (inactive)
- GI50 (SK-MEL-2): 20 µM (inactive)
- GI50 (SK-MEL-5): 2.67 µM (inactive)
- GI50 (SK-OV-3): 19.5 µM (inactive)
- GI50 (SN12C): 12.9 µM (inactive)
- GI50 (SNB-19): 19.4 µM (inactive)
- GI50 (SR): 2.11 µM (inactive)
- GI50 (SW-620): 13.2 µM (inactive)
- GI50 (T47D): 21.5 µM (inactive)
- GI50 (TK-10): 15.3 µM (inactive)
- GI50 (U-251): 10.9 µM (inactive)
- GI50 (UACC-257): 14.2 µM (inactive)
- GI50 (UACC-62): 2.56 µM (inactive)
- GI50 (UO-31): 11.4 µM (inactive)

Structure (SMILES): CCCCCCCCCCCCCCN [TETRADECYLAMINE]
- GI50 (786-0): > 100 µM (inactive)
- GI50 (A498): > 100 µM (inactive)
- GI50 (ACHN): > 100 µM (inactive)
- GI50 (BT-549): > 100 µM (inactive)
- GI50 (CAKI-1): > 100 µM (inactive)
- GI50 (CCRF-CEM): > 100 µM (inactive)
- GI50 (COLO 205): > 100 µM (inactive)
- GI50 (DU-145): > 100 µM (inactive)
- GI50 (EKVX): > 100 µM (inactive)
- GI50 (HCC 2998): > 100 µM (inactive)
- GI50 (HCT-116): > 100 µM (inactive)
- GI50 (HCT-15): > 100 µM
- GI50 (HL-60): > 100 µM (inactive)
- GI50 (HOP-62): > 100 µM (inactive)
- GI50 (HOP-92): > 100 µM (inactive)
- GI50 (HT-29): > 100 µM (inactive)
- GI50 (Hs-578T): > 100 µM (inactive)
- GI50 (IGROV-1): > 100 µM (inactive)
- GI50 (K562): > 100 µM (inactive)
- GI50 (KM12): > 100 µM (inactive)
- GI50 (LOX IMVI): > 100 µM (inactive)
- GI50 (MCF7): > 100 µM (inactive)
- GI50 (MDA-MB-231): > 100 µM (inactive)
- GI50 (MDA-MB-435): > 100 µM (inactive)
- GI50 (MDA-N): > 100 µM (inactive)
- GI50 (MOLT-4): > 100 µM (inactive)
- GI50 (Malme-3M): > 100 µM (inactive)
- GI50 (NCI-H23): > 100 µM (inactive)
- GI50 (NCI-H460): > 100 µM (inactive)
- GI50 (NCI-H522): > 100 µM (inactive)
- GI50 (NCI/ADR-RES): > 100 µM (inactive)
- GI50 (OVCAR-3): > 100 µM (inactive)
- GI50 (OVCAR-4): > 100 µM (inactive)
- GI50 (OVCAR-5): > 100 µM (inactive)
- GI50 (OVCAR-8): > 100 µM (inactive)
- GI50 (PC-3): > 100 µM (inactive)
- GI50 (RPMI-8226): > 100 µM (inactive)
- GI50 (RXF 393): > 100 µM (inactive)
- GI50 (SF-268): > 100 µM (inactive)
- GI50 (SF-295): > 100 µM (inactive)
- GI50 (SK-MEL-28): > 100 µM (inactive)
- GI50 (SK-MEL-2): > 100 µM (inactive)
- GI50 (SK-MEL-5): > 100 µM (inactive)
- GI50 (SK-OV-3): > 100 µM (inactive)
- GI50 (SN12C): > 100 µM (inactive)
- GI50 (SNB-75): > 100 µM (inactive)
- GI50 (SW-620): > 100 µM (inactive)
- GI50 (T47D): > 100 µM (inactive)
- GI50 (TK-10): > 100 µM (inactive)
- GI50 (U-251): > 100 µM (inactive)
- GI50 (UACC-257): > 100 µM (inactive)
- GI50 (UACC-62): > 100 µM (inactive)

Reference: ChEMBL document CHEMBL1201862, “PubChem BioAssay data set” (2004)
